From article PMC4660440 (Scientific Reports, 2015)
Read-outs that look alike come from different tables or passages of the source.

Tests used:
Assay type in all cases: cell-based
[1] = tested on: HeLa; assay: MTT cytotoxicity assay, HeLa; conditions: drug exposure 48 h, mean ± SD (n = 3), read-out: Cytotoxic activity (IC50) HeLa
Experimental: (§1) HeLa, BGC823, A-549, MCF-7 and HT-7702 cell lines were obtained from the ATCC. […] Tumor cells (3500–13,000) were seeded into 96-well microtest plates in 100 μL of culture medium per well, incubated for 48 h in the presence or absence of test compounds (8 different concentrations ranging from 100 to 0.01 μg/mL). For quantitative estimation of cytotoxicity, the (MTT) method was used, essentially performed as described previously. Briefly, cells were washed twice with PBS, fixed for 15 min in 1% glutaraldehyde solution, rinsed twice in PBS, and stained in 0.5% MTT solution for 4 h at 37 °C. […] The initial seeding densities varied among the cell lines to ensure a final absorbance reading in control (untreated) cultures within the range of 0.6–0.8 A492 units. Drug exposure was carried out for 2 days, and the IC50 value, i.e., the drug concentration that decreased the absorbance by 50%, was extrapolated from dose-response data. Each test was performed in triplicate, and the absorbance readings between the triplicates varied by no more than 10%.

[2] = tested on: BGC-823; assay: MTT cytotoxicity assay, BGC-823; conditions: Homo sapiens, BGC-823, drug exposure 48 h, mean ± SD (n = 3), read-out: Cytotoxic activity (IC50) BGC-823
Experimental: as §1

[3] = tested on: A549; assay: MTT cytotoxicity assay, A549; conditions: Homo sapiens, A549, drug exposure 48 h, mean ± SD (n = 3), read-out: Cytotoxic activity (IC50) A549
Experimental: as §1

[4] = tested on: MCF-7; assay: MTT cytotoxicity assay, MCF-7; conditions: Homo sapiens, MCF7, drug exposure 48 h, mean ± SD (n = 3), read-out: Cytotoxic activity (IC50) MCF-7
Experimental: as §1

[5] = MTT cytotoxicity assay, normal hepatic cell line HL-7702; conditions: HL-7702 normal hepatic cells, human normal hepatic immortal cell line, drug exposure 48 h, mean ± SD (n = 3), read-out: Cytotoxic activity (IC50) HL-7702
Experimental: as §1

SMILES | IC50 ([1]; Homo sapiens, HeLa, 48 h) [µM] | IC50 [2] [µM] | IC50 [3] [µM] | IC50 [4] [µM] | IC50 at 48 h [5] [µM] | IC50 [1] [µM]
COc1cc([C@@H]2c3cc4c(cc3[C@@H](Nc3ccc(Br)cc3)[C@H]3COC(=O)[C@H]23)OCO4)cc(OC)c1OC [Compound 8] | 42.1 ± 0.91 | 46.2 ± 2.97 | 52.9 ± 4.36 | 19.7 ± 0.62 | 27.1 ± 2.31 | 
COc1cc([C@@H]2c3cc4c(cc3[C@@H](O[C@@H]3O[C@@H]5CO[C@@H](C)O[C@H]5[C@H](O)[C@H]3O)[C@H]3COC(=O)[C@H]23)OCO4)cc(OC)c1O [Etoposide, reference compound] | 59.4 ± 2.45 | 25.5 ± 1.42 | 20.1 ± 1.95 | 25.3 ± 1.93 | 24.6 ± 3.82 | 59.4 ± 2.45
COc1cc([C@@H]2c3cc4c(cc3[C@@H](Nc3ccc(Cl)cc3)[C@H]3COC(=O)[C@H]23)OCO4)cc(OC)c1OC [Compound 9] | 21.32 ± 0.11 | 23.1 ± 1.74 | 22.8 ± 1.08 | 19.3 ± 1.43 | 41.6 ± 3.11 | 
COc1ccc(Br)cc1N[C@@H]1c2cc3c(cc2[C@@H](c2cc(OC)c(OC)c(OC)c2)[C@H]2C(=O)OC[C@@H]21)OCO3 [Compound 14] | 7.07 ± 0.63 | 6.26 ± 0.36 | 6.85 ± 0.75 | 4.97 ± 0.03 | 87.6 ± 4.13 | 
COc1cc([C@@H]2c3cc4c(cc3[C@@H](Nc3ccccc3Cl)[C@H]3COC(=O)[C@H]23)OCO4)cc(OC)c1O [Compound 3′] | 23.4 ± 1.4 | 23.1 ± 1.87 | 20.5 ± 0.42 | 37.5 ± 1.03 | 2.42 ± 0.71 | 
COc1cccc(N[C@@H]2c3cc4c(cc3[C@@H](c3cc(OC)c(OC)c(OC)c3)[C@H]3C(=O)OC[C@@H]32)OCO4)c1 [Compound 13] | 11.6 ± 0.83 | 12.7 ± 1.06 | 12.4 ± 0.38 | 13.8 ± 3.98 | 38.8 ± 2.37 | 
COc1cc([C@@H]2c3cc4c(cc3[C@@H](Nc3cccc(Br)c3)[C@H]3COC(=O)[C@H]23)OCO4)cc(OC)c1OC [Compound 5] | 9.01 ± 0.11 | 11.2 ± 3.61 | 13.4 ± 2.54 | 8.35 ± 0.42 | 13.58 ± 0.11 | 
COc1cc([C@@H]2c3cc4c(cc3[C@@H](Nc3ccc(Cl)cc3)[C@H]3COC(=O)[C@H]23)OCO4)cc(OC)c1O [Compound 9′] | 16.7 ± 1.31 | 14.3 ± 1.14 | 29.8 ± 0.75 | 37.68 ± 0.16 | 15.8 ± 1.17 | 
COc1ccccc1N[C@@H]1c2cc3c(cc2[C@@H](c2cc(OC)c(O)c(OC)c2)[C@H]2C(=O)OC[C@@H]21)OCO3 [Compound 11′] | 13.5 ± 1.38 | 9.68 ± 0.17 | 8.68 ± 0.29 | 9.42 ± 0.24 | 63.57 ± 0.19 | 
COc1ccccc1N[C@@H]1c2cc3c(cc2[C@@H](c2cc(OC)c(OC)c(OC)c2)[C@H]2C(=O)OC[C@@H]21)OCO3 [Compound 11] | 13.4 ± 1.31 | 14.2 ± 0.98 | 14.1 ± 0.37 | 10.2 ± 0.61 | 37.5 ± 1.75 | 
COc1cc([C@@H]2c3cc4c(cc3[C@@H](Nc3ccccc3Br)[C@H]3COC(=O)[C@H]23)OCO4)cc(OC)c1OC [Compound 2] | 26.6 ± 2.03 | 17.9 ± 0.98 | 35.1 ± 2.37 | 29.1 ± 1.78 | 65.9 ± 2.37 | 
COc1cc([C@@H]2c3cc4c(cc3[C@@H](Nc3ccccc3Br)[C@H]3COC(=O)[C@H]23)OCO4)cc(OC)c1O [2′] | 31.3 ± 1.43 | 28.7 ± 1.04 | 44.9 ± 3.12 | 27.6 ± 0.91 | 47.4 ± 3.14 | 
COc1cc([C@@H]2c3cc4c(cc3[C@@H](Nc3ccccc3Cl)[C@H]3COC(=O)[C@H]23)OCO4)cc(OC)c1OC [Compound 3] | 26.7 ± 1.32 | 18.1 ± 1.03 | 27.2 ± 1.95 | 21.1 ± 0.76 | 13.2 ± 1.35 | 
COc1ccc(F)cc1N[C@@H]1c2cc3c(cc2[C@@H](c2cc(OC)c(OC)c(OC)c2)[C@H]2C(=O)OC[C@@H]21)OCO3 [Compound 16] | 1.46 ± 0.19 | 1.37 ± 0.17 | 1.43 ± 0.09 | 1.92 ± 0.23 | 27.7 ± 0.77 | 
COc1cc([C@@H]2c3cc4c(cc3[C@@H](Nc3cccc(Cl)c3)[C@H]3COC(=O)[C@H]23)OCO4)cc(OC)c1OC [Compound 6] | 5.43 ± 0.27 | 9.32 ± 1.79 | 7.23 ± 0.95 | 6.57 ± 0.15 | 35.27 ± 0.21 | 
COc1cc([C@@H]2c3cc4c(cc3[C@@H](Nc3ccc(Br)cc3)[C@H]3COC(=O)[C@H]23)OCO4)cc(OC)c1O [Compound 8′] | 21.07 ± 0.17 | 62.1 ± 4.39 | 62.4 ± 3.66 | 28.9 ± 1.06 | 32.1 ± 0.96 | 

SMILES | IC50 ([1]; Homo sapiens, HeLa, 48 h) [µM] | IC50 [2] [µM] | IC50 [3] [µM] | IC50 [4] [µM] | IC50 at 48 h [5] [µM] | IC50 [1] [µM]
COc1cc([C@@H]2c3cc4c(cc3[C@@H](Nc3cccc(Br)c3)[C@H]3COC(=O)[C@H]23)OCO4)cc(OC)c1O [Compound 5′] | 8.83 ± 0.12 | 13.6 ± 0.16 | 11.8 ± 0.74 | 10.7 ± 1.48 | 44.3 ± 1.78 | 
COc1cc([C@@H]2c3cc4c(cc3[C@@H](Nc3ccccc3)[C@H]3COC(=O)[C@H]23)OCO4)cc(OC)c1OC [Compound 1] | 35.1 ± 1.03 | 86.5 ± 4.21 | 43.2 ± 3.32 |  | 41.8 ± 2.47 | 
COc1cc([C@@H]2c3cc4c(cc3[C@@H](Nc3cccc(F)c3)[C@H]3COC(=O)[C@H]23)OCO4)cc(OC)c1OC [Compound 7] | 3.12 ± 0.18 | 5.21 ± 1.32 | 6.8 ± 0.31 | 4.05 ± 0.26 | 29.9 ± 0.74 | 
COc1cc([C@@H]2c3cc4c(cc3[C@@H](Nc3ccc(F)cc3)[C@H]3COC(=O)[C@H]23)OCO4)cc(OC)c1OC [Compound 10] | 17.51 ± 0.04 | 17 ± 0.18 | 12.1 ± 0.63 | 7.06 ± 0.37 | 27.4 ± 1.98 | 
COc1cc([C@@H]2c3cc4c(cc3[C@@H](Nc3cccc(Cl)c3)[C@H]3COC(=O)[C@H]23)OCO4)cc(OC)c1O [Compound 6′] | 5.13 ± 0.05 | 6.59 ± 0.21 | 5.03 ± 1.07 | 4.75 ± 0.37 | 32.5 ± 0.86 | 
COc1ccc(Cl)cc1N[C@@H]1c2cc3c(cc2[C@@H](c2cc(OC)c(OC)c(OC)c2)[C@H]2C(=O)OC[C@@H]21)OCO3 [Compound 15] | 2.64 ± 0.04 | 3.86 ± 0.29 | 1.71 ± 0.26 | 2.24 ± 0.14 | 19.3 ± 1.34 | 
COc1cccc(N[C@@H]2c3cc4c(cc3[C@@H](c3cc(OC)c(O)c(OC)c3)[C@H]3C(=O)OC[C@@H]32)OCO4)c1 [Compound 13′] | 12.3 ± 0.74 | 13.8 ± 1.42 | 7.27 ± 2.38 | 11 ± 1.26 | 39.8 ± 2.73 | 
COc1cc([C@@H]2c3cc4c(cc3[C@@H](Nc3ccccc3)[C@H]3COC(=O)[C@H]23)OCO4)cc(OC)c1O [Compound 1′] | 44.34 ± 0.34 | 68.2 ± 4.13 | 42.5 ± 5.11 | 26.8 ± 0.67 | 53.4 ± 4.34 | 
COc1ccc(Br)cc1N[C@@H]1c2cc3c(cc2[C@@H](c2cc(OC)c(O)c(OC)c2)[C@H]2C(=O)OC[C@@H]21)OCO3 [Compound 14′] | 6.47 ± 0.17 | 22.2 ± 2.02 | 54.3 ± 4.49 | 4.21 ± 0.25 | 87.6 ± 5.04 | 
COc1ccc(Cl)cc1N[C@@H]1c2cc3c(cc2[C@@H](c2cc(OC)c(O)c(OC)c2)[C@H]2C(=O)OC[C@@H]21)OCO3 [Compound 15′] | 5.89 ± 0.48 | 27.1 ± 1.17 | 29.7 ± 1.67 | 2.16 ± 0.37 | 67.6 ± 4.32 | 
COc1ccc(F)cc1N[C@@H]1c2cc3c(cc2[C@@H](c2cc(OC)c(O)c(OC)c2)[C@H]2C(=O)OC[C@@H]21)OCO3 [Compound 16′] | 1.72 ± 0.3 | 1.32 ± 0.16 | 3.17 ± 0.49 | 1.53 ± 0.07 | 24.3 ± 0.69 | 
COc1cc([C@@H]2c3cc4c(cc3[C@@H](Nc3ccccc3F)[C@H]3COC(=O)[C@H]23)OCO4)cc(OC)c1O [Compound 4′] | 20.7 ± 0.75 | 17.8 ± 0.34 | 15.6 ± 1.75 | 15.3 ± 0.42 | 31.5 ± 2.81 | 
COc1cc([C@@H]2c3cc4c(cc3[C@@H](Nc3ccc(F)cc3)[C@H]3COC(=O)[C@H]23)OCO4)cc(OC)c1O [Compound 10′] | 16.32 ± 0.09 | 28.61 ± 0.06 | 17.7 ± 0.47 | 9.84 ± 0.73 | 29.6 ± 2.33 | 
COc1cc([C@@H]2c3cc4c(cc3[C@@H](Nc3ccccc3F)[C@H]3COC(=O)[C@H]23)OCO4)cc(OC)c1OC [Compound 4] | 22.1 ± 0.81 | 22.7 ± 0.97 | 16.8 ± 1.22 | 16.1 ± 0.17 | 16 ± 0.66 | 
COc1cc([C@@H]2c3cc4c(cc3[C@@H](Nc3cccc(F)c3)[C@H]3COC(=O)[C@H]23)OCO4)cc(OC)c1O [Compound 7′] | 5.07 ± 0.31 | 2.24 ± 0.06 | 3.88 ± 0.33 | 3.14 ± 0.15 | 21.4 ± 1.57 | 
